In patent US20260184707A1, “PHARMACEUTICAL COMPOUNDS FOR THE TREATMENT OF COMPLEMENT MEDIATED DISORDERS” (ALEXION PHARMACEUTICALS, INC., priority 2022, published 2026):
pIC50: −log10 of the molar value.

What follows are molecules tested against T1, Human complement C1s enzyme (Homo sapiens, UniProt P09871) (assay: Human C1s enzyme assay). Settings: human complement C1s enzyme 1.16 nM, substrate Z-L-Lys-SBzl, A405; read-out: IC50 (Stars).
T1 construct: purified from human serum, Complement Technology, Inc; purchased Complement Technology, Inc; host or cells: human serum (plasma-derived native protein)
T1 sequence (P09871 438-688 limits assumed): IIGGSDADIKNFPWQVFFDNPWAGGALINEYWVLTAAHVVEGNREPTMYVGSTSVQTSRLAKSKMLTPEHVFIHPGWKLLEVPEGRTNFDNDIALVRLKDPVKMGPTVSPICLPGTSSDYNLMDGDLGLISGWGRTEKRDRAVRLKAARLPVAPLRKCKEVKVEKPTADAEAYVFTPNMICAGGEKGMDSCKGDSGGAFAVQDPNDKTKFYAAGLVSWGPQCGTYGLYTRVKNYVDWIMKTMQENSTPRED
T1 sequence (P09871 16-437 partner limits assumed): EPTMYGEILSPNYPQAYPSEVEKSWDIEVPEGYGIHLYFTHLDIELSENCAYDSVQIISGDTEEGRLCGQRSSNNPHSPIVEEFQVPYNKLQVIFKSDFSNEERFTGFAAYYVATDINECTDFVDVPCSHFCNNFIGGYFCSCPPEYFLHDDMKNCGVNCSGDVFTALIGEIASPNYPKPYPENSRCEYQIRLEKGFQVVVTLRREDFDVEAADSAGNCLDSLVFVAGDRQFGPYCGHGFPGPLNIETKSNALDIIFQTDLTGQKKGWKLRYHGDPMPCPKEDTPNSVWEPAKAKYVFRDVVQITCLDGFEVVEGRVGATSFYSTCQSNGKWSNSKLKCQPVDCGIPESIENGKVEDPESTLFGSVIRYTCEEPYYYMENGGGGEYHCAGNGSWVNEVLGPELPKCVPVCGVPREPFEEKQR
Type: biochemical
Summary of the method: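 Thioesterase activity followed colorimetrically (DTNB, A405, 30-s reads) using 100 μM Z-L-Lys-SBzl substrate. Enzyme, human serum-derived C1s at 1.16 nM final, was incubated with test compound for 5 min, room temperature, pH 7.5 Tris buffer with 1 M NaCl. Rate-versus-concentration data fitted by nonlinear regression for IC50.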

Compound | pIC50
C[C@@H](Nc1cnc(N2CCCC2)n(CC(=O)NCc2cc3cnccc3[nH]2)c1=O)c1ccc2oc3ccccc3c2c1 [Compound 367, (R)—N-((1H-pyrrolo[3,2-c]pyridin-2-yl)methyl)-2-(5-((1-(dibenzo[b,d]furan-2-yl)ethyl)amino)-6-oxo-2-(pyrrolidin-1-yl)pyrimidin-1(6H)-yl)acetamide] | < 6.00
O=C(Cn1c(-c2ccccc2)ncc(NCc2ccc3oc4ccccc4c3c2)c1=O)NCc1cc2c(s1)CCNC2 [Compound 142, 2-(5-((dibenzo[b,d]furan-2-ylmethyl)amino)-6-oxo-2-phenylpyrimidin-1(6H)-yl)-N-((4,5,6,7-tetrahydrothieno[3,2-c]pyridine-2-yl)methyl)acetamide] | > 7.00
C[C@H](Nc1cnc(-c2ccccn2)n(CC(=O)NCc2cc3cnccc3[nH]2)c1=O)c1ccc2oc3ccccc3c2c1 [Compound 285, (S)—N-((1H-pyrrolo[3,2-c]pyridine-2-yl)methyl)-2-(5-((1-(dibenzo[b,d]furan-2-yl)ethyl)amino)-6-oxo-2-(pyridine-2-yl)pyrimidin-1(6H)-yl)acetamide] | > 7.00
C[C@@H](Nc1cnc(N2CCCCCC2)n(CC(=O)NCc2cc3cnccc3[nH]2)c1=O)c1ccc2oc3ccccc3c2c1 [Compound 388, (R)-N-((1H-pyrrolo[3,2-c]pyridin-2-yl)methyl)-2-(2-(azepan-1-yl)-5-((1-(dibenzo [b,d]furan-2-yl)ethyl)amino)-6-oxopyrimidin-1(6H)-yl)-acetamide] | 6.00 to 7.00
O=C(Cn1c(-c2ccccc2)ncc(N2CCN(c3ccccc3)CC2)c1=O)NCc1cc2cnccc2[nH]1 [Compound 37, N-((1H-pyrrolo[3,2-c]pyridin-2-yl)methyl)-2-(6-oxo-2-phen-yl-5-(4-phenylpiperazin-1-yl)-pyrimidin-1(6H)-yl)acetamide] | 6.00 to 7.00
O=C(Cn1c(-c2ccccc2)ncc(NC(=O)c2cccc(-c3nccs3)c2)c1=O)NCc1cc2cnccc2[nH]1 [Compound 167, N-(1-(2-(((1H-pyrrolo[3,2-c]pyridine-2-yl)methyl)amino)-2-oxoethyl)-6-oxo-2-phenyl-1,6-dihydropyrimidin-5-yl)-3-(thiazol-2-yl)benzamide] | > 7.00
C[C@H](Nc1cnc(-c2ccncc2)n(CC(=O)NCc2cc3cnccc3[nH]2)c1=O)c1ccc2oc3ccccc3c2c1 [Compound 315, (S)-N-((1H-pyrrolo[3,2-c]pyridin-2-yl)methyl)-2-(5-((1-(dibenzo[b,d]furan-2-yl)ethyl)-amino)-6-oxo-2-(pyridin-4-yl)-pyrimidin-1(6H)-yl)acetamide] | > 7.00
O=C(Cn1c(-c2ccccc2)ncc(NC(=O)CNC(=O)c2ccc(Oc3ccccc3)cc2)c1=O)NCc1cc2cnccc2[nH]1 [Compound 90, N-(2-((1-(2-(((1H-pyrrolo[3,2-c]pyridin-2-yl)methyl)amino)-2-oxoethyl)-6-oxo-2-phenyl-1,6-dihydropyrimidin-5-yl)-amino)-2-oxoethyl)-4-phenoxy-benzamide] | > 7.00
O=C(Cn1c(-c2ccccc2)ncc(NC(=O)CCC(=O)c2ccc(Oc3ccccc3)cc2)c1=O)NCc1cc2cnccc2[nH]1 [Compound 23, N-(1-(2-(((1H-pyrrolo[3,2-c]pyridin-2-yl)methyl)amino)-2-oxoethyl)-6-oxo-2-phenyl-1,6-dihydropyrimidin-5-yl)-4-oxo-4-(4-phenoxyphenyl)butanamide] | > 7.00
COc1ccc(-c2cc(C(=O)Nc3cnc(-c4ccccc4)n(CC(=O)NCc4cc5cnccc5[nH]4)c3=O)on2)cc1 [Compound 109, N-(1-(2-(((1H-pyrrolo[3,2-c]pyridin-2-yl)methyl)amino)-2-oxoethyl)-6-oxo-2-phenyl-1,6-dihydropyrimidin-5-yl)-3-(4-methoxyphenyl)isoxazole-5-carboxamide] | > 7.00
Nc1cnc(-c2ccccc2)n(CC(=O)NCc2cc3cnccc3[nH]2)c1=O [Compound 317, N-((1H-pyrrolo[3,2-c]pyridin-2-yl)methyl)-2-(5-amino-6-oxo-2-phenylpyrimidin-1(6H)-yl)-acetamide] | > 7.00
C[C@@H](Nc1cnc(-c2ccc(C3(F)COC3)cc2)n(CC(=O)NCc2cc3cnccc3[nH]2)c1=O)c1ccc2oc3ccccc3c2c1 [Compound 372, (R)—N-((1H-pyrrolo[3,2-c]pyridine-2-yl)methyl)-2-(5-((1-(dibenzo[b,d]furan-2-yl)ethyl)amino)-2-(4-(3-fluorooxetan-3-yl)phenyl)-6-oxopyrimidin-1(6H)-yl)acetamide] | > 7.00
O=C(Cn1c(-c2ccccc2)ncc(NC(=O)c2ccc(Oc3ccccc3)cc2)c1=O)NCc1cc2cnccc2[nH]1 [Compound 8, N-(1-(2-(((1H-pyrrolo[3,2-c]pyridin-2-yl)methyl)amino)-2-oxoethyl)-6-oxo-2-phenyl-1,6-dihydropyrimidin-5-yl)-4-phenoxybenzamide] | > 7.00
C[C@@H](Nc1cnc(-c2ccccc2)n(CC(=O)NCc2cc3cnccc3[nH]2)c1=O)c1ccc(-c2ccccc2)cc1 [Compound 275, (R)-N-((1H-pyrrolo[3,2-c]pyr-idin-2-yl)methyl)-2-(5-((1-([1,1′-biphenyl]-4-yl)ethyl)-amino)-6-oxo-2-phenylpyrimi-din-1(6H)-yl)acetamide] | > 7.00

Continued, values first:

pIC50 | Compound
> 7.00 | CC(=O)N1CCN(c2ncc(N[C@H](C)c3ccc4oc5ccccc5c4c3)c(=O)n2CC(=O)NCc2cc3cnccc3[nH]2)CC1 [Compound 466, (R)-N-((1H-pyrrolo[3,2-c]pyridin-2-yl)methyl)-2-(2-(4-acetylpiperazin-1-yl)-5-((1-(dibenzo[b,d]furan-2-yl)ethyl)-amino)-6-oxopyrimidin-1(6H)-yl)acetamide]
> 7.00 | C[C@@H](Nc1cnc(N2CCCCC2)n(CC(=O)NCc2cc3cnccc3[nH]2)c1=O)c1ccc(-c2ccccc2F)cc1 [Compound 416, (R)-N-((1H-pyrrolo[3,2-c]pyridin-2-yl)methyl)-2-(5-((1-(2′-fluoro-[1,1′-biphenyl]-4-yl)ethyl)amino)-6-oxo-2-(piperidin-1-yl)pyrimidin-1(6H)-yl)acetamide]
> 7.00 | Cc1ccc(-c2ncc(N[C@H](C)c3ccc4oc5ccccc5c4c3)c(=O)n2CC(=O)NCc2cc3cnccc3[nH]2)c(F)c1 [Compound 436, (R)-N-((1H-pyrrolo[3,2-c]pyridin-2-yl)methyl)-2-(5-((1-(dibenzo[b,d]furan-2-yl)ethyl)-amino)-2-(2-fluoro-4-methyl-phenyl)-6-oxopyrimidin-1(6H)-yl)acetamide]
6.00 to 7.00 | C[C@@H](Nc1cnc(N2CCCCC2)n(CC(=O)NCc2cc3cnccc3[nH]2)c1=O)c1csc(-c2ccccc2)n1 [Compound 463, (R)-N-((1H-pyrrolo[3,2-c]pyridin-2-yl)methyl)-2-(6-oxo-5-((1-(2-phenylthiazol-4-yl)-ethyl)amino)-2-(piperidin-1-yl)-pyrimidin-1(6H)-yl)acetamide]
> 7.00 | Cn1cc(-c2ncc(NCc3cc4ccccc4o3)c(=O)n2CC(=O)NCc2cc3cnccc3[nH]2)cn1 [Compound 483, N-((1H-pyrrolo[3,2-c]pyridin-2-yl)methyl)-2-(5-((benzo-furan-2-ylmethyl)amino)-2-(1-methyl-1H-pyrazol-4-yl)-6-oxopyrimidin-1(6H)-yl)-acetamide]
> 7.00 | C[C@@H](Nc1cnc(-c2ccc(OCCOCCOCCN)cc2)n(CC(=O)NCc2cc3cnccc3[nH]2)c1=O)c1ccc2oc3ccccc3c2c1 [Compound 452, (R)-N-((1H-pyrrolo[3,2-c]pyridin-2-yl)methyl)-2-(2-(4-(2-(2-(2-aminoethoxy)ethoxy)-ethoxy)phenyl)-5-((1-(dibenzo [b,d]furan-2-yl)ethyl)amino)-6-oxopyrimidin-1(6H)-yl)-acetamide]
6.00 to 7.00 | C[C@@H](Nc1cnc(N2CCCC2)n(CC(=O)NCc2cc3cnccc3[nH]2)c1=O)c1coc(-c2ccccc2)n1 [Compound 481, (R)-N-((1H-pyrrolo[3,2-c]pyridin-2-yl)methyl)-2-(6-oxo-5-((1-(2-phenyloxazol-4-yl)-ethyl)amino)-2-(pyrrolidin-1-yl)pyrimidin-1(6H)-yl)acet-mide]
> 7.00 | C[C@@H](Nc1nnc(N2CCCCC2)n(CC(=O)NCc2cc3cnccc3[nH]2)c1=O)c1ccc2oc3ccccc3c2c1 [Compound 491, (R)-N-((1H-pyrrolo[3,2-c]pyridin-2-yl)methyl)-2-(6-((1-(dibenzo[b,d]furan-2-yl)ethyl)-amino)-5-oxo-3-(piperidin-1-yl)-1,2,4-triazin-4(5H)-yl)-acetamide]
> 7.00 | C[C@@H](Nc1cnc(N2CCOCC2)n(CC(=O)NCc2cc3cnccc3[nH]2)c1=O)c1coc(-c2ccccc2)n1 [Compound 461, (R)—N-((1H-Pyrrolo[3,2-c]pyridine-2-yl)methyl)-2-(2-morpholino-6-oxo-5-((1-(2-phenyloxazol-4-yl)ethyl)amino)pyrimidin-1(6H)-yl)acetamide]
